Key:
panel of 442 kinases [1] = molecular target: T1, panel of 442 kinases (Homo sapiens, UniProt P41743); type: binding; settings: Compound Concentration 10 µM
T1 construct: purchased KINOMEscan
T1 sequence (P41743 1-596): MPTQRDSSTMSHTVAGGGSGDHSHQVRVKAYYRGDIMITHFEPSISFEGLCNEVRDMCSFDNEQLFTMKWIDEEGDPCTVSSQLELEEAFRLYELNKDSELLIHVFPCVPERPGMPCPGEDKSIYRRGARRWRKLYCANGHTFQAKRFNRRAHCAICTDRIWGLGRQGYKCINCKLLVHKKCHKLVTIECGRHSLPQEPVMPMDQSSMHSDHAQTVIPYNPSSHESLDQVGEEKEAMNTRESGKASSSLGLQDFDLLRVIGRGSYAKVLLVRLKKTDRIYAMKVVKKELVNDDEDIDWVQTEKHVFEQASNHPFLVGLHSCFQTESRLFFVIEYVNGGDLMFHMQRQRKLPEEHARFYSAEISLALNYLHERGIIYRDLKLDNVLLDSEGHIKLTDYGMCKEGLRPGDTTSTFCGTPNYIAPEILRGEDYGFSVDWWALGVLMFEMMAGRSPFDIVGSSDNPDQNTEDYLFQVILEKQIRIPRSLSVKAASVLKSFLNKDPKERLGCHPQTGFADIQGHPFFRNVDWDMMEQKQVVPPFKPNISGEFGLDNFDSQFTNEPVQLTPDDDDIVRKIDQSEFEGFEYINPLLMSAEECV
From the text: (§1) We assessed the selectivity of members of this scaffold using the KINOMEscan methodology across a near comprehensive panel of 442 kinases [[18,27]].

panel of 442 kinases [2] = molecular target: T2, panel of 442 kinases (Homo sapiens, UniProt Q9BWU1); type: binding; settings: Compound Concentration 10 µM
T2 construct: purchased KINOMEscan
T2 sequence (Q9BWU1 whole entry): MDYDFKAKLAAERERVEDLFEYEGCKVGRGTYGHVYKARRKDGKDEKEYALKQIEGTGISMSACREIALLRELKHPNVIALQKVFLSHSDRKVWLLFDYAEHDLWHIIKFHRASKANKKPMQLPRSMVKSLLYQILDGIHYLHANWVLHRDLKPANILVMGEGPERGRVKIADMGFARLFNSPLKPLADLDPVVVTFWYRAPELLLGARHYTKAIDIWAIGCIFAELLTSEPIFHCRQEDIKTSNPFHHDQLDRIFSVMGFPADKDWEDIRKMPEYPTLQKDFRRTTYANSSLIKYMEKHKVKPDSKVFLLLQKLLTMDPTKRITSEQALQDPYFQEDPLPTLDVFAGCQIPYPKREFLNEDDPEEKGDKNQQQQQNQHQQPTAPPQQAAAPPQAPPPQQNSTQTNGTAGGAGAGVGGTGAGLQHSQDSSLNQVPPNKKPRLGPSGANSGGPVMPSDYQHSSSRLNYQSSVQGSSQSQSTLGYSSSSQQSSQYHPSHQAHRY
From the text: as §1

SMILES | KINOMEscan: PRKCI (panel of 442 kinases [1]) | KINOMEscan: CDK11 (panel of 442 kinases [2])
COc1cc(C(=O)N2CCC(N3CCN(C)CC3)CC2)ccc1Nc1ncc2c(n1)N(C)c1ccccc1C(=O)N2C [15 (LRRK2-IN-1)] | 100 | 100
COc1cc(C(=O)N2CCC(N3CCN(C)CC3)CC2)ccc1Nc1ncc2c(n1)N1CCc3cccc(c31)C(=O)N2C [Compound 24] | – | 96
COc1cc(C(=O)N2CCC(N3CCN(C)CC3)CC2)ccc1Nc1ncc2c(n1)N(C1CCCC1)c1ccccc1C(=O)N2C [Compound 25, 11-cyclopentyl-2-((2-methoxy-4-(4-(4-methylpiperazin-1-yl)piperidine-1-carbonyl)phenyl)amino)-5-methyl-5H-benzo[e]pyrimido[5,4-b][1,4]diazepin-6(11H)-one] | 100 | 87
CCOc1cc(C(=O)N2CCC(N3CCN(C)CC3)CC2)ccc1Nc1ncc2c(n1)N(C1CCCC1)c1ccccc1C(=O)N2C [Compound 26] | 95 | 100

From paper PMC3914206
